# Test results from patent US20240189307A1, “METHODS OF STABILIZING THE NEURONAL PROTEOME AGAINST COLLAPSE AND PROTECTING VASCULAR CELLS” (ALBERT EINSTEIN COLLEGE OF MEDICINE, priority 2021, published 2024).
# Test system: PS19 mice (tau P301S)
# Assay: PS19 mouse model of Frontotemporal dementia-related proteotoxicity, oral daily CA
# Type: in vivo
# Experimental: FIG. 11. Chemical activation of CMA improves behavior and neuropathology in a mouse model of Frontotemporal dementia-related proteotoxicity. (A) Schematic of regimen of CMA activator (CA) administration to mice overexpressing human P301S tau (PS19). (B, C) Spontaneous locomotion in an open field of 9-month-old CTR or PS19 mice administered vehicle (Veh) or CA. Representative tracks (B) and total distance traveled in 10 min (C). (D-H) Immunostaining for MC1 tau in the hippocampus, the amygdala and the piriform cortex of 9 months old CTR, PS19 +/− CA. Representative images of the indicated brain regions (D). Scale bars: hippocampus: 500 μm, amygdala and piriform cortex: 200 μm. Quantification of the area stained in the hippocampus (E), (F-J) Immunoblots for tau and phosphorylated tau. Representative immunoblots and densitometric quantifications for the indicated proteins: S422-phosphorylated tau (G), S202/T205-phosphorylated tau (AT8) (H), MC1 tau (I) and total tau (J). (K-M) Immunostaining for Iba1 (K) and quantification of average cell size in the hippocampus (L) and the piriform cortex (M). Scale bars: hippocampus: 500 μm and piriform cortex: 200 μm. Data are mean+s.e.m. Individual values are shown for n=9-10 mice per genotype and treatment in C, E, G-M). Comparisons were made using one-way ANOVA followed by Tukey's post-hoc analysis (C, E, G, I-M) or Kruskal-Wallis test followed by Dunn's post hoc test (H). *p<0.05, **p<0.005, ***p<0.0005.
# Male wild-type mice (C57BL/6J) or transgenic for CaMKIIα-Cre (B6.Cg-Tg(Camk2α-cre)T29-1Stl/J, Jackson Laboratory), LAMP-2A^flox/flox (Schneider et al., 2014), Tau^P301L (line pR5), Tg (APP^Swe; PS2^N141I; Tau^P301L), PS19 (Tau^P301S) (Yoshiyama et al., 2007) and Atg7^f/f were used in the study. Conditional LAMP-2A deletion was generated by breeding LAMP-2A^flox/flox with the transgenic Cre mice of interest. Knockout for L2A in the whole body (L2A^−/−) was generated by insemination of a wild-type female with spermatozoids with L2A floxed to excise this gene in all tissues in the offspring. Male littermate wild type and only L2A^f/f were separately analyzed for each test and because no differences were detected among them, they were grouped in the results as “control” (CTR) for the experimental group (^CamKII[…] CreL2A^f/f or L2A^−/−). All mice were genotyped at weaning and genotyping was re-confirmed postmortem to correct for any possible misplacement during husbandry. Mice were all in the C57BL/6J background and maintained under specific pathogen-free conditions in ventilated cages with no more than 5 mice per cage. Only males were used in this study due to the complexity in generating the quadruple transgenic mouse model with L2A knock out in homozygosis (for which we took advantage of the location of the Lamp2 gene in the X chromosome). Age of the animals was 4-6 months in most experiments except when otherwise indicated in text, figures and figure legends. Animals were maintained at 19-23° C. in 12 h light/dark cycle. Mice were fed ad libitum. CA77.1 was administered as sucralose jelly pellets for a daily dose of 30 mg/Kg body weight whereas the vehicle treated group received the same sucralose jelly pellet without drug. Briefly, for preparation of the jelly pellets the final amount of the compound per day (adjusted per animal weight) was dissolved in ethanol and then mixed with a warm gelatin solution (100 mg/ml, 10 mg/ml sucralose in water), that was poured into 24 well flat bottom plates for solidification. To avoid animal stress and competition for the pellets, animals were separated with a grid spacer in the same cage that they were housed, eating of the pellet was monitored and the spacer was removed as soon as all mice consumed the pellet (average time 2 min). Sentinel animals were included in each study to determine brain exposure at the end of treatment. These animals received the same batch of jelly pellets in parallel to the experimental group. […]
smiles,measurement,setting,value
CC(=O)Nc1ccc(-c2cnc3cc(Cl)ccc3n2)cc1 [CA77.1],spontaneous locomotion in open field (locomotor hyperactivity),30 mg/kg body weight oral daily for 6 months from 3 months of age,normalized the previously described locomotor hyperactivity of PS19 mice to control levels
same,"immunoblot levels of aberrant, phosphorylated, oligomeric and insoluble tau","30 mg/kg oral daily, 6 months","lower levels of conformationally aberrant, S422 and AT8 phosphorylated, oligomeric and insoluble forms of tau"
same,total levels of human tau,"30 mg/kg oral daily, 6 months",did not reduce total levels of human tau
same,number of microglial cells and large Iba1-positive dystrophic cells,"hippocampus and piriform cortex, 30 mg/kg oral daily, 6 months",reduced upon CA treatment
same,"MC1 pathogenic tau conformations, levels and number of neurons","hippocampus, amygdala and piriform cortex, 30 mg/kg oral daily, 6 months",reduced the levels and number of neurons containing pathogenic tau conformations
same,"mice with tau Type III pathology (S202/T205, AT8 staining)","hippocampus, 30 mg/kg oral daily, 6 months, vehicle 60%",10%
